Assay results published in patent US9040516B2, “Uracil derivative and use thereof for medical purposes” (SUMITOMO DAINIPPON PHARMA CO., LTD., priority 2011, dated 2015).

These compounds were tested against T1, human neutrophil elastase (Homo sapiens, UniProt P08246) (assay: Inhibitory action against human neutrophil elastase (Test Example 1; fluorogenic substrate MeOSuc-AAPV-AMC, buffer with 2M NaCl, 0.002% Brij-35)). Details: 37° C., read-out: IC50 value (compound concentration required for 50% inhibition of human neutrophil elastase).
T1 construct: purchased Elastin Products Company
T1 sequence (P08246 30-267): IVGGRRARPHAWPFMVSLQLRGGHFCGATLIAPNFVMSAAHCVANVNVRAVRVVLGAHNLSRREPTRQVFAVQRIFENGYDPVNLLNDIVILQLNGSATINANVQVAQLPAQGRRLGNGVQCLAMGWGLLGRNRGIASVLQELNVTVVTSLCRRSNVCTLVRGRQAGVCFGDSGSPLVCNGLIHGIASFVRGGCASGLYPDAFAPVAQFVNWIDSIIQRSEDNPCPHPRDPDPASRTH
Format: biochemical
Experimental: Assay buffer (0.4 unit/ml HNE (human neutrophil elastase, available from Elastin Products Company), 200 mM HEPES [N-(2-hydroxyethyl)piperazine-N′-(2-ethanesulfonic acid)], pH 7.5, 2M NaCl, 0.002% Brij-35) 100 μl, water for injection 40 μl and DMSO (dimethyl sulfoxide) solution of the present compound 20 μl were mixed in a 96 well plate and the mixed solutions were pre-incubated at 37° C. for five minutes. After pre-incubation, MeOSuc-AAPV-AMC (methoxysuccinyl-alanyl-alanyl-prolyl-valyl-aminomethyl cumaride (available from Sigma Aldrich Co.) solution as fluorogenic substrate (which was dissolved in 10% DMSO solution so as to adjust to 0.5 mM) 40 μl was added to the above-prepared mixed solution so as to initiate the reaction, and the mixture was incubated at 37° C. for five minutes. The fluorescence intensity of AMC was measured at an excitation wavelength of 380 nm and a fluorescence wavelength of 460 nm and the inhibition ratio was determined.

SMILES | IC50
COc1cccc(-n2c(C)c(-c3ccnn3-c3ccc(C#N)cc3)c(=O)n(C)c2=O)c1 [Example 12, 4-[5-[1-(3-methoxyphenyl)-3,6-dimethyl-2,4-dioxo-1,2,3,4-tetrahydropyrimidin-5-yl]-1H-pyrazol-1-yl]benzonitrile] | 1.49 µM
Cc1c(-c2ccnn2-c2ccc(C#N)cc2)c(=O)n(C)c(=O)n1-c1ccc(F)c(C(F)(F)F)c1 [Example 13, 4-[5-[1-(4-fluoro-3-trifluorophenyl)-3,6-dimethyl-2,4-dioxo-1,2,3,4-tetrahydropyrimidin-5-yl]-1H-pyrazol-1-yl]benzonitrile] | 0.086 µM
Cc1c(-c2ccnn2-c2ccc(C#N)cc2)c(=O)n(C)c(=O)n1-c1ccccc1 [Example 14, 4-[5-(1-phenyl-3,6-dimethyl-2,4-dioxo-1,2,3,4-tetrahydropyrimidin-5-yl)-1H-pyrazol-1-yl]benzonitrile] | 12.6 µM
Cc1c(-c2ccnn2-c2ccc(C#N)cc2)c(=O)n(C)c(=O)n1-c1cccc([N+](=O)[O-])c1 [Example 18, 4-[5-[1-(3-nitrophenyl)-3,6-dimethyl-2,4-dioxo-1,2,3,4-tetrahydropyrimidin-5-yl]-1H-pyrazol-1-yl]benzonitrile] | 0.047 µM
Cc1c(-c2ccnn2-c2ccc(F)cc2)c(=O)n(C)c(=O)n1-c1cccc(C(F)(F)F)c1 [Example 22, 5-[1-(4-fluorophenyl)-1H-pyrazol-5-yl]-3,6-dimethyl-1-(3-trifluoromethylphenyl)pyrimidin-2,4(1H,3H)-dione] | 0.793 µM
Cc1c(-c2ccnn2-c2ccc(C#N)nc2)c(=O)n(C)c(=O)n1-c1cccc(C(F)(F)F)c1 [Example 23, 5-[5-[3,6-dimethyl-2,4-dioxo-1-(3-trifluoromethylphenyl)-1,2,3,4-tetrahydropyrimidin-5-yl]-1H-pyrazol-1-yl]picolinonitrile] | 0.651 µM
CN(C)C=Nc1c(-c2ccnn2-c2ccc(C#N)cc2)c(=O)n(C)c(=O)n1-c1cccc(C(F)(F)F)c1 [Example 28, N′-[5-[1-(4-cyanophenyl)-1H-pyrazol-5-yl]-1-methyl-2,6-dioxo-3-(3-trifluoromethylphenyl)-1,2,3,6-tetrahydropyrimidin-4-yl]-N,N-dimethylformimidamide] | 2.24 µM
CCCn1c(=O)c(-c2ccnn2-c2ccc(C#N)cc2)c(N=CN(C)C)n(-c2cccc([N+](=O)[O-])c2)c1=O [Example 29, N′-[5-[1-(4-cyanophenyl)-1H-pyrazol-5-yl]-3-(3-nitrophenyl)-2,6-dioxo-1-propyl-1,2,3,6-tetrahydropyrimidin-4-yl]-N,N-dimethylformimidamide] | 2.14 µM
Cc1c(-c2ccnn2-c2ccc(C#N)cc2)c(=O)n(CCCCCNC(=O)OC(C)(C)C)c(=O)n1-c1cccc(C(F)(F)F)c1 [Example 30, Tert-butyl 5-[5-[1-(4-cyanophenyl)-1H-pyrazol-5-yl]-4-methyl-2,6-dioxo-3-(3-trifluoromethyl)-2,3-dihydropyrimidine-1 (6H)-yl]pentylcarbamate] | 0.064 µM
Cc1c(-c2ccnn2-c2ccc(C#N)cc2)c(=O)n(C)c(=O)n1-c1cccc(C(F)(F)F)c1 [Example 31, 4-[5-[3,6-dimethyl-2,4-dioxo-1-(3-trifluoromethylphenyl)-1,2,3,4-tetrahydropyrimidin-5-yl]-1H-pyrazol-1-yl]benzonitrile] | 0.019 µM
Cc1c(-c2ccnn2-c2ccc(C#N)cc2)c(=O)n(C)c(=O)n1-c1cccc(C(F)(F)F)n1 [Example 33, 4-[5-[3,6-dimethyl-2,4-dioxo-1-(6-trifluoromethylpyridine-2-yl)-1,2,3,4-tetrahydropyrimidin-5-yl]-1H-pyrazol-1-yl]benzonitrile] | 74.6 µM
Cc1c(-c2ccnn2-c2ccc(C#N)cc2)c(=O)n(C)c(=O)n1-c1cccc(Br)c1 [Example 34, 4-[5-[1-(3-bromophenyl)-3,6-dimethyl-2,4-dioxo-1,2,3,4-tetrahydropyrimidin-5-yl]-1H-pyrazol-1-yl]benzonitrile] | 0.232 µM
CSc1cc(C#N)ccc1-n1nccc1-c1c(C)n(-c2cccc(C(F)(F)F)c2)c(=O)n(C)c1=O [Example 36, 4-[5-[3,6-dimethyl-2,4-dioxo-1-(3-trifluoromethylphenyl)-1,2,3,4-tetrahydropyrimidin-5-yl]-1H-pyrazol-1-yl]-3-(methylthio)benzonitrile] | 0.111 µM
Cc1c(-c2ccnn2-c2ccc(C#N)cc2)c(=O)n(C)c(=O)n1-c1cccc(C(C)(C)C)c1 [Example 38, 4-(5-(1-(3-tert-butylphenyl)-3,6-dimethyl-2,4-dioxo-1,2,3,4-tetrahydropyrimidin-5-yl)-1H-pyrazol-1-yl)benzonitrile] | 7.91 µM
Cc1c(-c2ccnn2-c2ccc(C#N)cc2)c(=O)n(C)c(=O)n1-c1cccc(S(C)(=O)=O)c1 [Example 39, 4-(5-(3,6-dimethyl-1-(3-(methylsulfonyl)phenyl)-2,4-dioxo-1,2,3,4-tetrahydropyrimidin-5-yl)-1H-pyrazol-1-yl)benzonitrile] | 19.9 µM
COc1ccc(-n2nccc2-c2c(C)n(-c3cccc(C(F)(F)F)c3)c(=O)n(C)c2=O)cc1 [Example 40, 5-(1-(4-methoxyphenyl)-1H-pyrazol-5-yl)-3,6-dimethyl-1-(3-(trifluoromethyl)phenyl)pyrimidin-2,4(1H,3H)-dione] | 8.34 µM
CCCn1c(=O)c(-c2ccnn2-c2ccc(C#N)cc2)c(N)n(-c2cccc([N+](=O)[O-])c2)c1=O [Example 57, 4-[5-[6-Amino-1-(3-nitrophenyl)-2,4-dioxo-3-propyl-1,2,3,4-tetrahydropyrimidin-5-yl]-1H-pyrazol-1-yl]benzonitrile] | 0.159 µM
Cn1c(=O)c(-c2ccnn2-c2ccc(C#N)cc2)c(N)n(-c2cccc(C(F)(F)F)c2)c1=O [Example 58, 4-[5-[6-Amino-3-methyl-2,4-dioxo-1-(3-trifluoromethylphenyl)-1,2,3,4-tetrahydropyrimidin-5-yl]-1H-pyrazol-1-yl]benzonitrile] | 0.552 µM
Cc1c(-c2cccnc2-c2ccc(C#N)cc2)c(=O)n(C)c(=O)n1-c1cccc(C(F)(F)F)c1 [Example 61, 4-[3-[3,6-dimethyl-2,4-dioxo-1-(3-trifluoromethylphenyl)-1,2,3,4-tetrahydropyrimidin-5-yl]-pyridin-2-yl]benzonitrile] | 0.074 µM
CCCn1c(=O)c(-n2cnnc2-c2ccc(C#N)cc2)c(C)n(-c2cccc(C(F)(F)F)c2)c1=O [Example 62, 4-[4-[6-Methyl-2,4-dioxo-3-propyl-1-(3-trifluoromethylphenyl)-1,2,3,4-tetrahydropyrimidin-5-yl]-4H-1,2,4-triazol-3-yl]benzonitrile] | 0.068 µM
Cc1c(-c2ccnn2-c2ccc(C#N)cc2)c(=O)n(CC=O)c(=O)n1-c1cccc(C(F)(F)F)c1 [Example 68] | 0.111 µM
Cc1c(-c2ccnn2-c2ccc(C#N)cc2)c(=O)n(CCN(C)C)c(=O)n1-c1cccc(C(F)(F)F)c1 [Example 69, 4-[5-[3-(2-Dimethylaminoethyl)-6-methyl-2,4-dioxo-1-(3-trifluoromethylphenyl)-1,2,3,4-tetrahydropyrimidin-5-yl]-1H-pyrazol-1-yl]benzonitrile] | 0.114 µM
CNCCn1c(=O)c(-c2ccnn2-c2ccc(C#N)cc2)c(C)n(-c2cccc(C(F)(F)F)c2)c1=O [Example 70, 4-[5-[6-Methyl-3-(2-methylaminoethyl)-2,4-dioxo-1-(3-trifluoromethylphenyl)-1,2,3,4-tetrahydropyrimidin-5-yl]-1H-pyrazol-1-yl]benzonitrile] | 0.043 µM

Same assay, conditions: at 100 μM

SMILES | Inhibition ratio (%)
Cc1c(-c2ccnn2-c2ccc(C#N)cc2)c(=O)n(C)c(=O)n1-c1ccccc1C(F)(F)F [Example 15, 4-[5-[3,6-dimethyl-2,4-dioxo-1-(2-trifluoromethylphenyl)-1,2,3,4-tetrahydropyrimidin-5-yl]-1H-pyrazol-1-yl]benzonitrile] | 76%
Cc1c(-c2ccnn2-c2ccc(C#N)cc2)c(=O)n(C)c(=O)n1-c1ccc(C(F)(F)F)cc1 [Example 16, 4-[5-[3,6-dimethyl-2,4-dioxo-1-(4-trifluoromethylphenyl)-1,2,3,4-tetrahydropyrimidin-5-yl]-1H-pyrazol-1-yl]benzonitrile] | 90%
Cc1c(-c2ccnn2-c2ccccc2)c(=O)n(C)c(=O)n1-c1cccc(C(F)(F)F)c1 [Example 20, 3,6-dimethyl-5-(1-phenyl-1H-pyrazol-5-yl)-1-(3-trifluoromethylphenyl)pyrimidin-2,4(1H,3H)-dione] | 83%
COC(=O)c1cccc(-n2c(C)c(-c3ccnn3-c3ccc(C#N)cc3)c(=O)n(C)c2=O)c1 [Example 32, 3-[5-[1-(4-cyanophenyl)-1H-pyrazol-5-yl]-3,6-dimethyl-2,4-dioxo-3,4-dihydropyrimidin-1(2H)-yl]benzoic acid methyl ester] | 50%
Cc1c(-c2ccnn2-c2cccc(C#N)c2)c(=O)n(C)c(=O)n1-c1cccc(C(F)(F)F)c1 [Example 35, 3-[5-[3,6-dimethyl-2,4-dioxo-1-(3-trifluoromethylphenyl)-1,2,3,4-tetrahydropyrimidin-5-yl]-1H-pyrazol-1-yl]benzonitrile] | 49%
